In article PMC10940605, “Design, synthesis and in vitro anticancer activity of some new lomefloxacin derivatives” (Scientific Reports, 2024):

Legend:
[1] = tested on: RXF 393; assay: NCI-60 SRB screen; format: cell-based; conditions: Homo sapiens, 48 h; RXF 393, 10^–5 Molar; read-out: Percent growth inhibition
Protocol: (§1) All newly synthesized compounds were selected and screened for anticancer activity against 60 human cancer cell lines representing 9 types of tumors including leukemia, melanoma, lung, colon, CNS, ovarian, renal, prostate, and breast cancers at the National Cancer Institute (NCI), Bethesda, USA. Screening was performed utilizing a single dose (10^−5 M concentration) and cells were incubated for 48 h. The end point was determined using sulforhodamine B (SRB) dye.
(§2) In this study, all the 16 newly synthesized compounds were submitted to the National Cancer Institute (USA) for anticancer evaluation and were selected and evaluated using 60 different human tumor cell lines representing lung, colon, CNS, ovarian, renal, prostate, breast cancers as well as leukemia and melanoma. A single dose (10^–5 Molar) was used for the initial screening for evaluation of anticancer activity. The 60 human cancer cell lines were provided by the national cancer institute biomedical research campus in Frederick, Maryland.
(§3) 60 different human cancer cell lines were utilized to screen the newly synthesized compounds for anticancer activity according to the previously reported standard procedure[24]–[26] as follows: • 96 well microtiter plates were used to inoculate the cells at […] ranging from 4000–5000 cells/well depending on the replication time of individual cell lines. Roswell Park Memorial Institute culture medium (RPMI 1640 medium) containing 2 mM L-glutamine and fetal bovine serum was used to grow the cells at 37 °C, 5% CO2, 95% air and 100% relative humidity for 24 h. • Fixation of cells in two plates of each cell line in situ was done using trichloroacetic acid (TCA). This represented the measurement of cell population at the time of drug addition (Tz). • Dimethyl sulfoxide (DMSO) was used to dissolve the synthesized compounds at 400-fold the desired final maximum concentration and frozen prior to use. This frozen concentrate was melted and diluted to twice the final concentration with complete medium containing 50 µg/mL gentamycin at time of drug addition. • The final compound concentration was obtained by adding 100 µL of the synthesized compounds to the appropriate microtiter wells already containing 100 µL followed by incubation of the plates at 37 °C, 5% CO2, 95% air and 100% relative humidity for 48 h. • Fixation of the cells was achieved by gentle addition of 50 µL of cold 50% (w/v) TCA followed by incubation for 60 min at 4 °C. The supernatant was then discarded and the plates are washed 5 times with tap water and air dried. • Sulphorhodamine B (SRB) solution (100 µL) at 0.4% (w/v) in 1% acetic acid was added to each plate followed by incubation for 10 min at room temperature. The unbound dye was then removed by washing five times with 1% acetic acid and plates were air dried. • Dissolution of the bound stain was done using […] trizma base and the absorbance was read at […] wavelength using an automated plate reader. • The percentage growth inhibition was calculated as follows: Ti-Tz/C-Tz×100forconcentrationswhichTi≥Tz Ti-Tz/Tz×100forconcentrationswhichTi<Tz • Time zero (Tz) • Control growth (C) • Test growth in the presence of drug (Ti)

[2] = tested on: OVCAR-5; assay: NCI-60 SRB screen; format: cell-based; conditions: Homo sapiens; OVCAR-5, 10^–5 Molar; read-out: Percent growth inhibition
Protocol: as §1, §2, §3

[3] = tested on: UO-31; assay: NCI-60 SRB screen; format: cell-based; conditions: Homo sapiens; UO-31, 10^–5 Molar; read-out: Percent growth inhibition
Protocol: as §1, §2, §3

[4] = tested on: SF-539; assay: NCI-60 SRB screen; format: cell-based; conditions: Homo sapiens; SF-539, 10^–5 Molar; read-out: Percent growth inhibition
Protocol: as §1, §2, §3

[5] = tested on: melanoma SK-MEL-5; assay: NCI-60 SRB screen; format: cell-based; conditions: Homo sapiens; SK-MEL-5, 10^–5 Molar; read-out: Percent growth inhibition
Protocol: as §1, §2, §3

[6] = tested on: SNB-75; assay: NCI-60 SRB screen; format: cell-based; conditions: Homo sapiens; SNB-75, 10^–5 Molar; read-out: Percent growth inhibition
Protocol: as §1, §2, §3

[7] = tested on: LOX IMVI; assay: NCI-60 SRB screen; format: cell-based; conditions: Homo sapiens, 10^–5 Molar, read-out: Percent growth inhibition
Protocol: as §1, §2, §3

[8] = tested on: SF-268; assay: NCI-60 SRB screen; format: cell-based; conditions: Homo sapiens; SF-268, 10^–5 Molar; read-out: Percent growth inhibition
Protocol: as §1, §2, §3

[9] = tested on: NCI-H226; assay: NCI-60 SRB screen; format: cell-based; conditions: Homo sapiens; NCI-H226, 10^–5 Molar; read-out: Percent growth inhibition
Protocol: as §1, §2, §3

[10] = tested on: UACC-62; assay: NCI-60 SRB screen; format: cell-based; conditions: Homo sapiens; UACC-62, 10^–5 Molar; read-out: Percent growth inhibition
Protocol: as §1, §2, §3

[11] = tested on: PC-3; assay: NCI-60 SRB screen; format: cell-based; conditions: Homo sapiens; PC-3, 10^–5 Molar; read-out: Percent growth inhibition
Protocol: as §1, §2, §3

[12] = tested on: MDA-MB-468; assay: NCI-60 SRB screen; format: cell-based; conditions: Homo sapiens; MDA-MB-468, 10^–5 Molar; read-out: Percent growth inhibition
Protocol: as §1, §2, §3

[13] = tested on: SW-620; assay: NCI-60 SRB screen; format: cell-based; conditions: Homo sapiens; SW-620, 10^–5 Molar; read-out: Percent growth inhibition
Protocol: as §1, §2, §3

[14] = tested on: CAKI-1; assay: NCI-60 SRB screen; format: cell-based; conditions: Homo sapiens; CAKI-1, 10^–5 Molar; read-out: Percent growth inhibition
Protocol: as §1, §2, §3

[15] = tested on: SNB-19; assay: NCI-60 SRB screen; format: cell-based; conditions: Homo sapiens; SNB-19, 10^–5 Molar; read-out: Percent growth inhibition
Protocol: as §1, §2, §3

[16] = tested on: HS 578T; assay: NCI-60 SRB screen; format: cell-based; conditions: Homo sapiens, 10^–5 Molar, read-out: Percent growth inhibition
Protocol: as §1, §2, §3

[17] = tested on: SN12C; assay: NCI-60 SRB screen; format: cell-based; conditions: Homo sapiens, 10^–5 Molar, read-out: Percent growth inhibition
Protocol: as §1, §2, §3

[18] = tested on: MCF7; assay: NCI-60 SRB screen; format: cell-based; conditions: Homo sapiens; MCF7, 10^–5 Molar; read-out: Percent growth inhibition
Protocol: as §1, §2, §3

[19] = tested on: IGROV1; assay: NCI-60 SRB screen; format: cell-based; conditions: Homo sapiens, IGROV-1; IGROV1, 10^–5 Molar; read-out: Percent growth inhibition
Protocol: as §1, §2, §3

[20] = tested on: T-47D; assay: NCI-60 SRB screen; format: cell-based; conditions: Homo sapiens, T47D, 10^–5 Molar, read-out: Percent growth inhibition
Protocol: as §1, §2, §3

[21] = tested on: 60 human cancer cell lines; assay: NCI-60 SRB screen, whole panel; format: cell-based; conditions: Homo sapiens, 48 h; One Dose Mean Graph, Conc 1.00E-5 Molar; read-out: Mean Growth Percent
[22] = tested on: HCT-15; assay: NCI-60 SRB screen; format: cell-based; conditions: Homo sapiens; HCT-15, 10^–5 Molar; read-out: Percent growth inhibition
Protocol: as §1, §2, §3

[23] = tested on: K-562; assay: NCI-60 SRB screen; format: cell-based; conditions: Homo sapiens, K562; K-562, 10^–5 Molar; read-out: Percent growth inhibition
Protocol: as §1, §2, §3

[24] = tested on: NCI-H322M; assay: NCI-60 SRB screen; format: cell-based; conditions: Homo sapiens, 10^–5 Molar, read-out: Percent growth inhibition
Protocol: as §1, §2, §3

[25] = tested on: MDA-MB-231/ATCC; assay: NCI-60 SRB screen; format: cell-based; conditions: Homo sapiens, 10^–5 Molar, read-out: Percent growth inhibition
Protocol: as §1, §2, §3

[26] = tested on: leukemia SR; assay: NCI-60 SRB screen; format: cell-based; conditions: Homo sapiens; SR, 10^–5 Molar; read-out: Percent growth inhibition
Protocol: as §1, §2, §3

[27] = tested on: 786-0; assay: NCI-60 SRB screen; format: cell-based; conditions: Homo sapiens; 786-0, 10^–5 Molar; read-out: Percent growth inhibition
Protocol: as §1, §2, §3

Compound | inhibition at 10 µM [3] | inhibition at 10 µM [6] | inhibition at 10 µM [7] | inhibition at 10 µM [8] | inhibition at 10 µM [9] | inhibition at 10 µM [10] | inhibition at 10 µM [12] | inhibition at 10 µM [13] | inhibition at 10 µM [14] | inhibition at 10 µM [16] | inhibition at 10 µM [17] | inhibition at 10 µM [18] | melting point | activity at 10 µM [21] | other results
CCn1cc(C(=O)O)c(=O)c2cc(F)c(N3CCN(CC(=O)Nc4ccc(S(=O)(=O)Nc5nccc(C)n5)cc4)C(C)C3)c(F)c21 (stereo not shown) [Compound 5f, 1-Ethyl-6,8-difluoro-7-(3-methyl-4-(2-((4-(N-(4-methylpyrimidin-2-yl)sulfamoyl)phenyl)amino)-2-oxoethyl)piperazin-1-yl)-4-oxo-1,4-dihydroquinoline-3-carboxylic acid] | 16.7% | 4.26% | 4.41% | 1.74% | 2.92% | 5.79% | 3.63% | 3.4% | 11.4% | 0.4% | 1.96% | 3.33% | 247 to 249 °C | 102% | inhibition at 10 µM [1]: 0.98%; inhibition at 10 µM [2]: 1.48%; inhibition at 10 µM [4]: 0.79%; inhibition at 10 µM [5]: 193%; inhibition at 10 µM [11]: 2.04%; inhibition at 10 µM [15]: 1.26%; inhibition at 10 µM [19]: 0.3%; inhibition at 10 µM [20]: 1.12%
CCn1cc(C(=O)O)c(=O)c2cc(F)c(N3CCN(CC(=O)Nc4ccc(S(=O)(=O)Nc5ncccn5)cc4)C(C)C3)c(F)c21 (stereo not shown) [Compound 5e, 1-Ethyl-6,8-difluoro-7-(3-methyl-4-(2-oxo-2-((4-(N-(pyrimidin-2-yl)sulfamoyl)phenyl)amino)ethyl)piperazin-1-yl)-4-oxo-1,4-dihydroquinoline-3-carboxylic acid] | 9.64% | 6.39% | – | 1.55% | – | 7.88% | – | – | 7.59% | 2.04% | 3.07% | 5.24% | 282 to 284 °C | 106% | inhibition at 10 µM [22]: 2.43%; inhibition at 10 µM [23]: 1.07%
CCn1cc(C(=O)O)c(=O)c2cc(F)c(N3CCN(C=O)C(C)C3)c(F)c21 (stereo not shown) [Compound 6, 1-Ethyl-6,8-difluoro-7-(4-formyl-3-methylpiperazin-1-yl)-4-oxo-1,4-dihydroquinoline-3-carboxylic acid] | 12.9% | 5.57% | 6.49% | 2.98% | 4.91% | 7.29% | 2.93% | 3.48% | 4.66% | – | – | – | 289 to 291 °C | 103% | inhibition at 10 µM [24]: 2.38%; inhibition at 10 µM [25]: 0.72%; inhibition at 10 µM [26]: 27.8%; inhibition at 10 µM [27]: 1.77%
